Results published in patent US6251903A, “Alkyl, azido, alkoxy, and fluoro-substituted and fused quinoxalinediones and the use thereof as glycine receptor antagonist” (priority 2000, dated 2001).
Entries after “also recorded” stand apart in the source; their conditions may differ. Read-outs that look alike come from different tables or passages of the source.

Columns and labels:
[1] = system: glycine binding site of the NMDA receptor; conditions: literature; cited from earlier work
[2] = system: dorsal horn nociceptive neurons; conditions: literature; cited from earlier work
[3] = literature; cited from earlier work
[4] = biological target: glycine binding site (Rattus norvegicus, UniProt P35439); experiment: affinity for the glycine binding site / glycine/NMDA receptor (Ki; method not stated)
Description: (§1) The binding affinities of quinoxaline-2,3-diones at NMDA receptor glycine sites also were estimated by electrophysiological assays with either cloned rat NMDA receptors expressed in Xenopus oocytes, or non-NMDA receptors expressed in oocytes by whole rat brain poly(A)^+ RNA. […] For NMDA receptors Ki values were approximated by averaging values at three subtype combinations (NR1A/NR2A, NR1A/NR2B, and NR1A/NR2C).

[5] = system: DBA-2 mice; experiment: audiogenic seizure model in DBA-2 mice; type: in vivo; conditions: Mus musculus, ip, 0.5 h; i.p. injection
Description: The anticonvulsant activity of the glycine and excitatory amino acid antagonists can be assessed in the audiogenic seizure model in DBA-2 mice as follows. DBA-2 mice can be obtained from Jackson Laboratories, Bar Harbor, Maine. These mice at an age of <27 days develop a tonic seizure within 5-10 seconds and die when they are exposed to a sound of 14 kHz (sinus wave) at 110 dB (Lonsdale, D., Dev. Pharmacol. Ther. 4:28 (1982)). […] 21 day old DBA-2 mice are used for all experiments. Compounds are given intraperitoneally in either saline, DMSO, or polyethyleneglycol-400. Appropriate solvent controls are included in each experiment. Dose response curves are constructed by giving increasing doses of drug from 1 mg/kg to 100 mg/kg. Each dose group (or solvent control) consists of at least six animals.

[6] = system: mice; experiment: anticonvulsant activity in maximum electroshock seizure (MES) experiments in mice; type: in vivo, male Swiss/Webster mice; conditions: Mus musculus, ip; Table III; i.p. injection
[7] = biological target: PCP receptor; conditions: Wong et al. 1986; cited from earlier work
[8] = system: neurons; conditions: literature; cited from earlier work
[9] = biological target: NMDA receptor glycine sites; experiment: electrophysiological assay, cloned rat NMDA receptors expressed in Xenopus oocytes; type: cell-based; conditions: Table II; from electrophysiology using Xenopus oocytes
Description: as §1

[10] = system: mice; experiment: anticonvulsant activity in maximum electroshock seizure (MES) experiments in mice; type: in vivo, male Swiss/Webster mice; conditions: for ED50 as an anticonvulsant in the MES experiment in mice: route not stated
Method: The seizure stimulus parameters were: 50 mA, 60 Hz, rectangular pulse, width 0.8 msec, duration 200 msec. Tonic hind limb extension observed after application of the electrical stimulus was recorded as occurrence of seizure. The drug was applied i.v. as an aqueous Tris (Tromethamine) solution.

[11] = system: mice; experiment: formalin test for pain in Swiss Webster mice; type: in vivo, male Swiss Webster mice; conditions: for time spent licking, early phase / time spent licking, late phase (15-50 min): mean ± s.e.m.; for antinociceptive effect in the formalin test: i.p., early and late phases
Method: The effects of the glycine receptor antagonists of the present invention on chronic pain can be evaluated as follows. Male Swiss/Webster mice weighing 25-35 grams are housed five to a cage with free access to food and water and are maintained on a 12 hour light cycle (light onset at 0800h). The glycine receptor antagonist is dissolved in DMSO at a concentration of 140 and 5-40 mg/mL, respectively. DMSO is used as vehicle control. All drugs=are injected intraperitoneally (1 μl/g). […] Mice are observed in a plexiglass cylinder, 25 cm in diameter and 30 cm in height. The plantar surface of one hindpaw is injected subcutaneously with 20 μl of 5% formalin. The degree of pain is determined by measuring the amount of time the animal spends licking the formalin-injected paw during the following time intervals: 0-5' (early phase); 5'-10', 10'-15' and 15'-50' (late phase). To test whether the glycine/excitatory amino acid antagonists prevent chronic pain in the test animals, vehicle (DMSO) or drugs dissolved in vehicle at doses of 1 mg/kg to 40 mg/kg are injected intraperitoneally 30 minutes prior to the formalin injection. For each dose of drug or vehicle control at least six animals are used.
Briefly, after a 60 minute accommodation period in plexiglass jars, mice were weighed and injected intraperitoneally (i.p.) with NDMQX (1-20 mg/kg; N=6-10 mice/dose). Controls were injected with DMSO (1 mL/kg, i.p.). Thirty min later, mice were injected with formalin (20 μl of 5% solution) just under the skin of the right hind paw, transferred to the plexiglass jars, and immediately observed for licking or biting of the injected paw for 1 hr. The amount of time that each mouse spent licking the injected paw was measured at 0-5 min (early phase) and 15-50 min (late phase).
In the formalin test, following a 1 hr accommodation period, mice were injected i.p. with NMCQX (1.00-10.00 mg/kg, N=7-13 mice/dose) or NDMQX (0.5-20.00 mg/kg, N=8-9 mice/dose). Control mice were injected with Tris (0.5 M) or Bis-Tris (0.2 M), respectively. Mice were then injected with formalin. […] The amount of time that each mouse spent licking and/or biting the injected paw was recorded for 1 hr.

[12] = system: mice; experiment: MES test with i.p. NMCQX or NDMQX (Example 51); type: in vivo, Swiss Webster mice; conditions: NMCQX 1.25-7.50 mg/kg, NDMQX 5.00-15.00 mg/kg
Method: In the MES test, mice were injected i.p. with NMCQX (1.25-7.50 mg/kg) or NDMQX (5.00-15.00 mg/kg). Control mice were injected with Tris (0.05 M) or Arginine (0.1 M), respectively. Seizures were then induced by applying a rectangular pulse, 50 mA, 60 pulses/sec, 0.8 msec pulse width, and 0.2 sec train length, at the time of the drugs' peak effect.

[13] = system: mice; experiment: morphine tolerance in the formalin test (8 days chronic); type: in vivo, male Swiss Webster mice
Method: A modification of a previously described method was used (Hunskaar et al., J. Neurosci. Meth. 14:69-76 (1985)). Briefly, mice were placed in Plexiglas jars for at least 1 hr for accommodation to the experimental condition. Formalin (20 μl of 5% formaldehyde solution in saline) was injected into the dorsal surface of the right hind paw using a microsyringe (Hamilton Co., Reno, Nev.) with a 27-gauge needle. Mice were then transferred to the Plexiglas jars and immediately observed for licking or biting of the injected paw for 1 hr. The amount of time that each mouse spent licking or biting the injected paw was recorded for every 5-min period for a 1 hr observation period.
[…] Mice were immediately, within a minute, injected with either saline or morphine (20 mg/kg, s.c.). On day 9, mice were weighed and after a 1-hr accommodation period-injected with morphine (4 mg/kg, s.c.). Thirty min later, all mice were tested in the formalin test (see above).

[14] = system: mice; experiment: effect of chronic NDMQX on morphine antinociception in the formalin test; type: in vivo, male Swiss Webster mice; conditions: 40 mg/kg i.p., 8 days
[15] = system: rats; experiment: rat model of permanent focal cerebral ischemia, continuous intravenous infusion; type: in vivo, male Sprague-Dawley rats; conditions: for reduction in cortical infarct volume: p<0.05; for neuroprotection: rat focal ischemia
Method: Male Sprague-Dawley rats (290-320 g) were […] and maintained under anesthesia with ±2% of halothane. […] The common carotid arteries (CCA) were isolated, and a loose silk ligature Was placed around each CCA. A vertical skin incision was made between the left orbit and the auditory canal, posterior part of zygoma removed and small opening (2.0/2.5 mm) drilled dorsorostrally to the foramen ovale under constant saline irrigation. The dura was opened with a microsurgical hook and the brain gently retracted with a fine spatula to expose the bifurcation of the internal carotid artery and the middle cerebral artery. The ipsilateral CCA was ligated and the MCA coagulated from its origin to the olfactory tract Two hours after MCA occlusion, the clip from the contralateral CCA was removed.
NDMQX was dissolved in 0.1 M L-arginine and 5% glucose and infused as a slow 10 mg/kg i.v. bolus (immediately after MCA occlusion) followed by 7 mg/kg/h infusion for 22 hours.
Brains were sliced into 2 mm blocks and stained with tetrazolium red (2,3,5-triphenyl tetrazolium chloride). The areas of brain damage were assessed using an image analyzer (Image-1, Universal Imaging Corporation, PA) to determine the volume of cortical and subcortical infarction by integration of areas and the distance between each level.
For the drug administration, the NMCQX was dissolved in 0.05 Tris and 5% glucose. It was infused as a slow 2 mg/kg i.v. bolus (immediately after MCA occlusion) followed by 1.4 mg/kg/h infusion for 22 hours.

[16] = penetration of the blood/brain barrier, access to the central nervous system; type: in vivo; conditions: inferred from Ki and MES ED50

O=C(O)c1cc(O)c2ccc(Cl)cc2n1 [7-Cl-kynurenic acid]
glycine site antagonism or affinity (words) [1]: relatively high receptor binding affinity in vitro | blockade of "wind up" [2]: blocked the "wind up" phenomenon | penetration of the blood/brain barrier (words) [3]: cannot penetrate the blood/brain barrier

O=c1[nH]c2c(F)c(F)c(F)c(F)c2[nH]c1=O [F F F F, 5,6,7,8-tetrafluoro-1,4-dihydroquinoxaline-2,3-dione]
Ki ([4]; Table III, read-out: Ki): 2190 nM | ED50 [5]: 9 mg/kg | ED50 [6]: 20 mg/kg

C[C@]12N[C@H](Cc3ccccc31)c1ccccc12 [MK801]
Kd [7]: ~3 nM | neuroprotective efficacy [8]: have neuroprotective efficacy both in vitro and in vivo

Cc1cc2nc(O)c(O)nc2c([N+](=O)[O-])c1C [NDMQX, 6,7-Dimethyl-5-nitro-1,4-dihydroquinoxaline-2,3-dione]
Ki [9]: 43 nM | Ki [4]: 43 nM | times less active than 6,7-dichloro-5-nitro-1,4-dihydroquinoxaline-2,3-dione at the glycine/NMDA receptor ([4]; from Ki): about 10 times | ED50 as an anticonvulsant in the MES experiment in mice [10]: 4 to 5 mg/kg | time spent licking, early phase ([11]; 1.0 mg/kg i.p.): 72.57 ± 14.2 sec per 5 min period | time spent licking, late phase (15-50 min) ([11]; 1.0 mg/kg i.p.): 37.59 ± 5.37 sec per 5 min period | time spent licking, early phase ([11]; 2.5 mg/kg i.p.): 78.50 ± 10.0 sec per 5 min period | time spent licking, late phase (15-50 min) ([11]; 2.5 mg/kg i.p.): 26.38 ± 5.43 sec per 5 min period | time spent licking, early phase ([11]; 5 mg/kg i.p.): 32.83 ± 8.28 sec per 5 min period | time spent licking, late phase (15-50 min) ([11]; 5 mg/kg i.p.): 10.24 ± 2.66 sec per 5 min period | time spent licking, early phase ([11]; 10 mg/kg i.p.): 29.17 ± 14.9 sec per 5 min period | time spent licking, late phase (15-50 min) ([11]; 10 mg/kg i.p.): 10.19 ± 2.44 sec per 5 min period | time spent licking, early phase ([11]; 15 mg/kg i.p.): 6.83 ± 1.85 sec per 5 min period | time spent licking, late phase (15-50 min) ([11]; 15 mg/kg i.p.): 3.19 ± 1.37 sec per 5 min period | time spent licking, early phase ([11]; 20 mg/kg i.p.): 4.33 ± 2.85 sec per 5 min period | time spent licking, late phase (15-50 min) ([11]; 20 mg/kg i.p.): 0.05 ± 0.05 sec per 5 min period | antinociceptive effect in the formalin test [11]: attenuated the mean time spent licking in a dose-dependent manner in both phases; also recorded: significant analgesic effect in both phases; also recorded: dose-dependent antinociceptive effect in both phases | protection from electroshock seizures [12]: dose-dependently protected mice from generalized clonic-tonic seizures | effect on morphine tolerance ([13]; 2 mg/kg): no effect on morphine tolerance | effect on morphine tolerance ([13]; 20 mg/kg): attenuated | effect on morphine tolerance ([13]; 40 mg/kg): completely abolished | morphine tolerance (words, overall) ([13]; 8 days, early and late phases): Tolerance did not develop in mice treated with NDMQX followed by morphine; also recorded: blocked morphine tolerance in both phases of the formalin test | effect on morphine-induced antinociception [14]: did not alter the antinociceptive effect of morphine; also recorded: not due to potentiation of morphine-induced antinociception | reduction in cortical infarct volume ([15]; 10 mg/kg i.v. bolus then 7 mg/kg/h for 22 hours): 71% | neuroprotection [15]: significant neuroprotection | times better in crossing the blood brain barrier than 6,7-dichloro-5-nitro-1,4-dihydroquinoxaline-2,3-dione [16]: about 10 times

Cc1c(Cl)cc2[nH]c(=O)c(=O)[nH]c2c1[N+](=O)[O-] [NMCQX, 7-Chloro-6-methyl-5-nitro-1,4-dihydroquinoxaline-2,3-dione]
Ki [9]: 5 nM | Ki [4]: 5 nM | times better than 6,7-dichloro-5-nitro-1,4-dihydroquinoxaline-2,3-dione as anticonvulsant ([10]; MES ED50 ratio): 4-5 times | ED50 as an anticonvulsant in the MES experiment in mice [10]: 1 mg/kg | antinociceptive effect in the formalin test [11]: dose-dependent antinociceptive effect in both phases | protection from electroshock seizures [12]: dose-dependently protected mice from generalized clonic-tonic seizures | reduction in cortical infarct volume ([15]; 2 mg/kg i.v. bolus then 1.4 mg/kg/h for 22 hours): 75% | neuroprotection [15]: significant neuroprotection
